Experimental data as given in patent publication US12338203B2 (TAISHO PHARMACEUTICAL CO., LTD., priority 2019, dated 2025).

Target: T1, human LPAR1 (Homo sapiens, UniProt Q92633)
T1 construct: expressed in transfected cells
Experiment: Test Example 1: antagonism against response of LPA-induced increase in intracellular Ca2+ concentration in RH7777 cells stably expressing human LPAR1
Format: cell-based
Conditions: RH7777 cells stably expressing human LPAR1; Fluo-4 fluorescence, FDSS6000; read-out: IC50 value (concentration producing 50% antagonism against response of LPA-induced increase in intracellular Ca2+ concentration) (converted)
How it was run: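 Ca2+ flux read at 540 nm emission (480 nm excitation) after LPA addition to human LPAR1-expressing RH7777 cells exposed to compound for 30 min, 37 °C, pH 7.4 HEPES-buffered HBSS. Response relative to no-compound control after basal subtraction; IC50 fitted from concentration–response.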

T1 sequence (Q92633 whole entry): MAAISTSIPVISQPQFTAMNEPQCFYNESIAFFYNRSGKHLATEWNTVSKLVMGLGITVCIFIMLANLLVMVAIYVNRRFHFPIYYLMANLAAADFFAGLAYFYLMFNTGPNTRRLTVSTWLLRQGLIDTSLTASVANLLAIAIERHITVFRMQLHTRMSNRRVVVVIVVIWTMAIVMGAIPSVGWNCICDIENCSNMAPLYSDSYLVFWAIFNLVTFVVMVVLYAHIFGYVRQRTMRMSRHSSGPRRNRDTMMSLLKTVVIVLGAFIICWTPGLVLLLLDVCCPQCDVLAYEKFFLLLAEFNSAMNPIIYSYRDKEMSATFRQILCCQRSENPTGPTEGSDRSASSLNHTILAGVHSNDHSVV

SMILES | IC50 [nM]
CCOc1cc(C(C)N(CCCCc2ccccc2)C(=O)NC2(C(=O)O)CC2)c(Cl)c(OCC)c1C(C)=O (stereo not drawn) [Example 5-44] | 3.38
CCOc1cc(C(C)N(CCCCc2ccccc2)C(=O)NC2CC(C(=O)O)C2)c(Cl)c(OCC)c1C(C)=O (stereo not drawn) [Example 5-45] | 32.9
CCOc1cc([C@@H](C)N(CCCCc2ccccc2)C(=O)NC2(C(=O)O)CC(F)(F)C2)c(Cl)c(OCC)c1C(C)=O [Example 5-46] | 1.36
CCOc1cc([C@@H](C)N(CCCCc2ccccc2)C(=O)NC2(C(=O)O)CC(OC)C2)c(Cl)c(OCC)c1C(C)=O (stereo partly drawn) [Example 5-47] | 2.1
CCOc1cc([C@@H](C)N(CCCCc2ccccc2)C(=O)NC2(C(=O)O)CC(OC)C2)c(Cl)c(OCC)c1C(C)=O (stereo partly drawn) [Example 5-48] | 3.77
CCOc1cc([C@@H](C)N(CCCCc2ccccc2)C(=O)N[C@]2(C(=O)O)C[C@H](OC)C2)c(Cl)c(OCC)c1C(C)=O [Example 5-49] | 3.88
CCOc1cc(C(C)N(CCCCc2ccccc2)C(=O)NC2(C(=O)O)CC(OCC)C2)c(Cl)c(OCC)c1C(C)=O (stereo not drawn) [Example 5-50] | 3.1
CCOc1cc([C@@H](C)N(CCCCc2ccccc2)C(=O)NC2(C(=O)O)CCOCC2)c(Cl)c(OCC)c1C(C)=O [Example 5-51] | 2.56
CCOc1cc([C@@H](C)N(CCO[C@@H](C)c2ccccc2)C(=O)N[C@]2(C(=O)O)C[C@H](OCC)C2)c(Cl)c(OCC)c1C(C)O (stereo partly drawn) [Example 5-63] | 8.05
CCOc1cc([C@@H](C)N(CCC(F)(F)Cc2ccccc2)C(=O)NC2(C(=O)O)CCOCC2)c(Cl)c(OCC)c1C(C)O (stereo partly drawn) [Example 5-67, 4-{[{(1R)-1-[2-Chloro-3,5-Diethoxy-4-(1-Hydroxyethyl)Phenyl]Ethyl}(3,3-Difluoro-4-Phenylbutyl) Carbamoyl]Amino}Oxane-4-Carboxylic Acid] | 43.4
CCOc1cc([C@@H](C)N(CCC(F)(F)Cc2ccccc2)C(=O)NC2(C(=O)O)CCOCC2)c(Cl)c(OCC)c1C(C)O (stereo partly drawn) [Example 5-68, 4-{[{(1R)-1-[2-Chloro-3,5-Diethoxy-4-(1-Hydroxyethyl)Phenyl]Ethyl}(3,3-Difluoro-4-Phenylbutyl) Carbamoyl]Amino}Oxane-4-Carboxylic Acid] | 31
CCOc1cc([C@@H](C)N(CCO[C@@H](C)c2ccccc2)C(=O)NC2(C(=O)O)CC(OC)C2)c(C)c(OCC)c1C(C)=O (stereo partly drawn) [Example 5-71] | 2.51
CCOc1cc([C@@H](C)N(CCO[C@@H](C)c2ccccc2)C(=O)N[C@]2(C(=O)O)C[C@H](OC)C2)c(C)c(OCC)c1C(C)=O [Example 5-72] | 3.62
CCOc1cc([C@@H](C)N(CCOCc2ccccc2)C(=O)NC2(C(=O)O)CC(OC)C2)c(C)c(OCC)c1C(C)=O (stereo partly drawn) [Example 5-73] | 1.42
CCOc1cc([C@@H](C)N(CCOCc2ccccc2)C(=O)N[C@]2(C(=O)O)C[C@H](OC)C2)c(C)c(OCC)c1C(C)=O [Example 5-74] | 1.93
CCOc1cc([C@@H](C)N(CCO[C@@H](C)c2ccccc2)C(=O)NC2(C(=O)O)CC2)c(C)c(OCC)c1C [Example 5-75] | 4.74
CCOc1cc([C@@H](C)N(CCC(F)(F)Cc2ccccc2)C(=O)NC2(C(=O)O)CC(OC)C2)c(C)c(OCC)c1C (stereo partly drawn) [Example 5-77] | 14
CCOc1cc([C@@H](C)N(CCOCc2ccccc2)C(=O)NC2(C(=O)O)CC(OC)C2)c(C)c(OCC)c1C (stereo partly drawn) [Example 5-78] | 1.05
CCOc1cc([C@@H](C)N(CCO[C@@H](C)c2ccccc2)C(=O)N[C@]2(C(=O)O)C[C@@H](OC)C2)c(C)c(OCC)c1C [Example 5-79] | 1.21
CCOc1cc([C@@H](C)N(CCC(F)(F)Cc2ccccc2)C(=O)N[C@]2(C(=O)O)C[C@@H](OCC)C2)c(C)c(OCC)c1C [Example 5-80] | 43.5
CCOc1cc([C@@H](C)N(CCOCc2ccccc2)C(=O)N[C@]2(C(=O)O)C[C@@H](OCC)C2)c(C)c(OCC)c1C [Example 5-81] | 1.07
CCOc1cc([C@@H](C)N(CCO[C@@H](C)c2ccccc2)C(=O)N[C@]2(C(=O)O)C[C@@H](OCC)C2)c(C)c(OCC)c1C [Example 5-82, trans-1-[([(1R)-1-(3,5-diethoxy-2,4-dimethylphenyl)ethyl]{2-[(1S)-1-phenylethoxy]ethyl}carbamoyl)amino]-3-ethoxycyclobutane-1-carboxylic acid] | 1.75
CCOc1cc(C(C)N(CCCCc2ccccc2)C(=O)NC2(C(=O)O)CC(F)(F)C2)c(F)c(OCC)c1C (stereo not drawn) [Example 5-83] | 3.36
CCOc1cc(C(C)N(CCCCc2ccccc2)C(=O)NC2(C(=O)O)CC(F)(F)C2)c(Cl)c(OCC)c1C (stereo not drawn) [Example 5-84] | 3.36
CCOc1cc(OCC)nc(C(C)N(CCCCc2ccccc2)C(=O)NC2(C(=O)O)CC(F)(F)C2)c1 (stereo not drawn) [Example 5-85, 1-({[1-(4,6-Diethoxypyridin-2-Yl)Ethyl](4-Phenylbutyl) Carbamoyl}Amino)-3,3-Difluorocyclobutane-1-Carboxylic Acid] | 5.12
CCOc1cc(C(C)N(CCCCc2ccccc2)C(=O)NC2(C(=O)O)CC(F)(F)C2)cc(OCC)n1 (stereo not drawn) [Example 5-86] | 11
COc1cc(OC)nc(C(C)N(CCCCc2ccccc2)C(=O)NC2(C(=O)O)CC(F)(F)C2)n1 (stereo not drawn) [Example 5-87] | 195

SMILES | IC50 [nM]
COc1cc(C(C)N(CCCCc2ccccc2)C(=O)NC2(C(=O)O)CC(F)(F)C2)nc(OC)n1 (stereo not drawn) [Example 5-88] | 43.1
CCOc1cncc(C(C)N(CCCCc2ccccc2)C(=O)NC2(C(=O)O)CC(F)(F)C2)c1 (stereo not drawn) [Example 5-89] | 55.3
COc1cc(C(C)N(CCCCc2ccccc2)C(=O)NC2(C(=O)O)CC(F)(F)C2)cnc1C#N (stereo not drawn) [Example 5-90] | 143
CC(c1ccc2c(c1)OCCO2)N(CCCCc1ccccc1)C(=O)NC1(C(=O)O)CC(F)(F)C1 (stereo not drawn) [Example 5-91] | 711
CCOc1cc(C(C)N(CCCCc2ccccc2)C(=O)NC2(C(=O)O)CC(F)(F)C2)cc2c1CCO2 (stereo not drawn) [Example 5-92] | 23.1
CCOc1cc(C(C)N(CCCCc2ccccc2)C(=O)NC2(C(=O)O)CC(F)(F)C2)c2ccn(CC)c2c1 (stereo not drawn) [Example 5-95] | 7.22
CCOc1cc(C(C)N(CCCCc2ccccc2)C(=O)NC2(C(=O)O)CC(F)(F)C2)c2c(c1)N(CC)CC2 (stereo not drawn) [Example 5-97] | 10.1
CCOc1cc(C(C)N(CCCCc2ccccc2)C(=O)NC2(C(=O)O)CC(F)(F)C2)cc2c1cnn2CC (stereo not drawn) [Example 5-99, 1-({[1-(4-Ethoxy-1-Ethyl-1H-Indazol-6-Yl)Ethyl](4-Phenylbutyl) Carbamoyl}Amino)-3,3-Difluorocyclobutane-1-Carboxylic Acid] | 5.6
CCNc1cc(C(C)N(CCCCc2ccccc2)C(=O)NC2(C(=O)O)CC(F)(F)C2)cc(OCC)c1C(C)=O (stereo not drawn) [Example 5-102] | 7.35
CCNc1cc(C(C)N(CCCCc2ccccc2)C(=O)NC2(C(=O)O)CCC2)cc(OCC)c1C(C)=O (stereo not drawn) [Example 5-103] | 1.71
CCNc1cc(C(C)N(CCCCc2ccccc2)C(=O)NC2(C(=O)O)Cc3ccccc3C2)cc(OCC)c1C(C)=O (stereo not drawn) [Example 5-104] | 20.7
CCNc1cc(C(C)N(CCCCc2ccccc2)C(=O)NC2(C(=O)O)CCS(=O)(=O)CC2)cc(OCC)c1C(C)=O (stereo not drawn) [Example 5-105] | 12.2
CCNc1cc([C@@H](C)N(CCCCc2ccccc2)C(=O)NC2(C(=O)O)CC(F)(F)C2)cc(OCC)c1C(C)=O [Example 5-108] | 1.51
CCNc1cc([C@H](C)N(CCCCc2ccccc2)C(=O)NC2(C(=O)O)CC(F)(F)C2)cc(OCC)c1C(C)=O [Example 5-109] | 191
CCNc1cc([C@@H](C)N(CCCCc2ccccc2)C(=O)NC2(C(=O)O)CCC2)cc(OCC)c1C(C)=O [Example 5-110] | 1.78
CCNc1cc([C@@H](C)N(CCCCc2ccccc2)C(=O)NC2(C(=O)O)CC(F)(F)C2)cc(O)c1C(C)=O [Example 5-112] | 15.1
CCNc1cc(C(C)N(CCCCc2ccccc2)C(=O)NC2(C(=O)O)CCC2)cc(OCC)c1C#N (stereo not drawn) [Example 5-113] | 3.58
CCNc1cc(C(C)N(CCCCc2ccccc2)C(=O)NC2(C(=O)O)CC(F)(F)C2)cc(OCC)c1C#N (stereo not drawn) [Example 5-114] | 4.19
CCNc1cc([C@@H](C)N(CCCCc2ccccc2)C(=O)NC2(C(=O)O)CC(F)(F)C2)cc(OCC)c1C#N [Example 5-115] | 2.34
O=C(NC1(C(=O)O)CC(F)(F)C1)N(CCCCc1ccccc1)C1CCc2c(Cl)cc(Cl)cc21 (stereo not drawn) [Example 5-116, 1-{[(4,6-Dichloro-2,3-Dihydro-1H-Inden-1-Yl) (4-Phenylbutyl) Carbamoyl]Amino}-3,3-Difluorocyclobutane-1-Carboxylic Acid] | 22.2
O=C(NC1(C(=O)O)CC(F)(F)C1)N(CCCCc1ccccc1)C1COc2c(Cl)cc(Cl)cc21 (stereo not drawn) [Example 5-117] | 5.59
CCOc1cc([C@@H](C)N(CCO[C@@H](C)c2ccccc2)C(=O)N[C@]2(C(=O)O)C[C@@H](OCC)C2)c(C)c(OCC)c1C(C)=O [Example 5-118, Trans-1-[([(1R)-1-(4-Acetyl-3,5-Diethoxy-2-Methylphenyl)Ethyl]{2-[(1S)-1-Phenylethoxy]Ethyl}Carbamoyl)Amino]-3-Ethoxycyclobutane-1-Carboxylic Acid] | 1.86
CCOc1cc([C@@H](C)N(CCO[C@@H](C)c2ccccc2)C(=O)NC2(C(=O)O)CC(OCC)C2)c(C)c(OCC)c1C(C)=O (stereo partly drawn) [Example 5-119] | 2.91
COc1cc([C@@H](C)N(CCOCc2ccccc2)C(=O)NC2(C(=O)O)CC(OC)C2)cc(OC)c1C(C)=O (stereo partly drawn) [Example 5-121] | 12.1
COc1cc([C@@H](C)N(CCO[C@@H](C)c2ccccc2)C(=O)NC2(C(=O)O)CC(OC)C2)cc(OC)c1C(C)=O (stereo partly drawn) [Example 5-122] | 30.3
COc1cc([C@@H](C)N(CCOCc2ccccc2)C(=O)NC2(C(=O)O)CC(OC)C2)c(Cl)c(OC)c1C(C)=O (stereo partly drawn) [Example 5-123] | 4.33
COc1cc([C@@H](C)N(CCO[C@@H](C)c2ccccc2)C(=O)NC2(C(=O)O)CC(OC)C2)c(Cl)c(OC)c1C(C)=O (stereo partly drawn) [Example 5-124] | 10.8
